Tests used:
Format in all cases: in vivo
[1] = system: DIO mice (C57Bl/6J male mice); assay: Liver weight, 36 days assay in DIO mice; settings: 50 mg/kg orally twice daily, after 36 days, vs saline control and metformin 150 mg/kg
Procedure: To assess the performance of the compounds disclosed decreasing liver overweight, DIO mice (C57Bl/6J male mice) were treated with compounds 4a and 5a during 36 days, versus a control of DIO mice treated with vehicle (0.9% NaCl) and DIO mice treated with Metformin as a positive control.
For the assessment, 60 C57Bl/6J male mice (16-week-old at delivery and 40 g of average weight), obtained from Charles River France, were put on high fat diet for 10 weeks. The animals were housed in ventilated and enriched housing cages (310×125×127 mm^3) throughout the experimental phase. Animals' cages litters were changed at least once a week. Mice were housed in groups of 10 mice on a normal 12 hours light cycle (at 08:00 pm lights were switched off), at 22±2° C. and 50±10% relative humidity. After reception, mice were maintained for three additional acclimation weeks. During the whole test (acclimation+treatment phase) a high fat diet (D12492; purchased from Research Diet Inc 60% fat) and tap water were provided ad libitum.
After the acclimation period, mice were fasted for 6 hours and blood glucose and plasma insulin were measured. Ten animals, those with lower blood glucose/plasma insulin, were discarded from the study. Then, the others were randomized into 5 homogenous groups (n=10 mice per group) according to their blood glucose/plasma insulin levels (HOMA-IR) and body weight. […]

[2] = system: DIO-NASH mice (C57Bl/6J male mice); assay: Liver weight, 8 weeks assay in DIO-NASH mice; settings: 50 mg/kg, p.o., b.i.d., vs DIO-NASH vehicle
Procedure: The animals were kept and examined under the same conditions were used as in example 2.2. The liver biopsies were also carried out under the same conditions as in example 2.2.
(§1) To assess the effect of compound 4a on liver weight of mice with non-alcoholic fat liver disease, DIO-NASH mice (C57Bl/6J male mice) were treated with a hydrochloride salt of compound 4a during 8 weeks (50 mg/kg, p.o., b.i.d.), versus a pathological control of DIO-NASH mice and a non-pathological control LEAN-CHOW mice, both treated with the vehicle (0.9% NaCl). The DIO-NASH mice group were put on high fat diet (40% AMLN diet, D09100301 Research Diets, USA) and a control group (LEAN-CHOW) was put on a regular chow diet (Altromin 1324, Brogaarden, Denmark) for 35 weeks prior to the study.

[3] = system: DIO-NASH mice (C57Bl/6J male mice); assay: Absolute and relative body weight, 8 weeks assay in DIO-NASH mice; settings: 50 mg/kg, p.o., b.i.d., statistics at day 54, vs DIO-NASH vehicle
Procedure: as §1, with “The assay was carried out to evaluate the effect of the compounds of the invention on body weight of animals with non-alcoholic fat liver disease (DIO-NASH mice). For this assay,” for “To assess”, “in absolute and relative body” for “on liver”, “was evaluated.” for “of mice with non-alcoholic fat liver disease,”
Body weight of for each of the groups taken on a daily basis. The animals were kept under the same conditions were used as in example 2.2.

[4] = system: DIO-NASH mice (C57Bl/6J male mice); assay: Liver inflammation: galectin-3 IHC staining in DIO-NASH mice; settings: 50 mg/kg, p.o., b.i.d., 8 weeks
Procedure: To assess the effect of the compounds of the invention in inflammation of liver in the treatment of non-alcoholic fat liver disease, liver galactin-3 (inflammation marker) levels were determined after a 8 weeks study where DIO-NASH mice (C57Bl/6J male mice) were treated with a hydrochloride salt of compound 4a during 8 weeks (50 mg/kg, p.o., b.i.d.), versus a pathological control of DIO-NASH mice and a non-pathological control LEAN-CHOW mice, both treated with the vehicle (0.9% NaCl).
Galectin-3 was measured via galtactin-3 IHC staining: galectin-3 (Biolegend, Cat. #125402) IHC were performed using standard procedures. Briefly, after antigen retrieval and blocking of endogenous peroxidase activity, slides were incubated with primary antibody. The primary antibody was detected using a linker secondary antibody followed by amplification using a polymeric HRP-linker antibody conjugate. Next, the primary antibody was visualized with DAB as chromogen. Finally, sections were counterstained in hematoxylin and cover-slipped.

`COc1ccc(-c2nc(C(=O)NCCN)cc3c2[nH]c2ccccc23)cc1` [Compound 4a, N(-ethylamine)-1-benzosubstituted-β-carboline-3-carboxamide] was tested, and the “liver weight (liver overweight)” value [1] was “lower liver weight than either mice treated with metformin or than the control animals”, the total liver weight [2] was “reduced liver weight” and the absolute body weight [3] was “reduced body weight”. For the same molecule, the “relative body weight versus the body weight at the start of the treatment (day 0 is 100%)” value [3] was “reduced relative body weight significantly”, the “anti-galectin-3 staining, representative images of liver samples” value ([4]; end of study) was “visible change in this inflammation marker” and the “total liver galectin-3 content determined by morphometry” value ([4]; vs DIO-NASH vehicle) was “reduced total galectin-3 content”.
